# Source: US20240368174A1, “Antiviral Heterocyclic Compounds” (Enanta Pharmaceuticals, Inc., priority 2023, published 2024)
# Test system: genotype A, “Long” strain RSV
# Test: RSV-A assay (CPE, ATPlite readout in Hep-2 cells)
# Assay type: cell-based, Human respiratory syncytial virus
# Settings: human respiratory syncytial virus, activity class
# From the text: Hep-2 cells, (originally derived from tumors grown in irradiated-cortisonised weanling rats that had been injected with epidermoid carcinoma tissue from the larynx of a person, but later found to be indistinguishable from HeLa cells by PCR DNA analysis), were used for the culturing of genotype A, “Long” strain RSV. Flasks were inoculated with RSV and viral stocks were collected once cytopathic effect (CPE) was greater than 90%. Viral stocks in 25% sucrose media were snap frozen using liquid nitrogen to increase viral stability. Viral stock titers were quantified by tissue culture infectious dose 50% (TCID50) using 8,000 cells per well and 3-fold viral dilutions across a 96-well plate, cultured for 4 days. Viral stock titers were also quantified by a plaque forming unit assay, as described elsewhere.
# Following extensive parameter testing, the final assay is run as follows: Hep-2 cells are seeded into the inner 60 wells of a 96-well plate at 8,000 cells per well in a volume of 50 μL using Growth Media (DMEM without phenol red, 1% L-Glut, 1% Penn/Strep, 1% nonessential amino acids, 10% heat-inactivated FBS). 2-fold serial dilutions of control and test compounds are added to the wells in duplicate in a total volume of 25 μL. Viral stock is then added to the wells at a multiplicity of infection (MOI) of 0.1 in a volume of 25 μL, bringing the total volume of each well to 100 μL. The MOI is calculated using the PFU/mL, or TCID50 if unavailable. Each 96-well plate has a control column of 6 wells with cells and virus but no compound (negative control, max CPE), a column with cells but no compound or virus (positive control, minimum CPE), and a column with no cells or virus or compound (background plate/reagent control). The control wells with cells but no virus are given an additional 25 μL of growth media containing an equal quantity of sucrose as those wells receiving the viral stock in order to keep consistent in media and volume conditions. The outer wells of the plate are filled with 125 μL of moat media (DMEM, 1% Penn/Strep) to act as a thermal and evaporative moat around the test wells. Following a 5-day incubation period, the plates are read using ATPlite (50 uL added per well), which quantifies the amount of ATP (a measure of cell health) present in each well. Assay plates are read using the Envision luminometer. […] EC50 ranges are as follows: A<0.2 μM; B>0.2 μM.
row,SMILES,EC50
1,COc1cc(C(=O)NC[C@](O)(c2cc3c(c(-c4csc(Cl)c4)n2)OC[C@]3(C)C(N)=O)C2CC2)cc2cn(C3CC3)nc12 [Example 416],< 200 nM
2,COc1cc(C(=O)NC[C@](O)(c2cc3c(c(-n4ccc5c(OC(F)F)cccc54)n2)OC[C@]3(C)C(N)=O)C2CC2)cc2cn(C3CC3)nc12 [Example 864],< 200 nM
3,COc1cc(C(=O)NC[C@](O)(c2cc3c(c(-c4ccnc(C(F)F)c4Cl)n2)OC[C@]3(C)C(N)=O)C2CC2)cc2oc(C3CC3)nc12 [Example 787],< 200 nM
4,C[C@]1(C(N)=O)COc2c1cc([C@@](O)(CNC(=O)c1cc(OC3CC3)c3ncc(Cl)cc3c1)C1CC1)nc2-c1ccc2c(c1Cl)OC(F)(F)O2 [Example 106],< 200 nM
5,COc1nccc(-c2nc([C@@](O)(CNC(=O)c3cc(OC)c4nn(C5(F)CC5)cc4c3)C3CC3)cc3c2OC[C@]3(C)C(N)=O)c1Cl [Example 789],< 200 nM
6,C[C@]1(C(N)=O)COc2c1cc([C@@](O)(CNC(=O)c1cc(OC3CC3)n3nc(C4CC4)cc3c1)C1CC1)nc2-c1ccc(F)c(Cl)c1Cl [Example 325],< 200 nM
7,COc1cc(C(=O)NC[C@](O)(c2cc3c(c(-c4ccnc(C(F)(F)F)c4F)n2)OC[C@]3(C)C(N)=O)C2CC2)cc2cn(C3CC3)nc12 [Example 794],< 200 nM
8,COc1cc(C(=O)NC[C@](O)(c2cc3c(c(-c4ccnc(F)c4Cl)n2)OC[C@]3(C)C(N)=O)C(F)(F)F)cc2cn(C(F)F)nc12 [Example 380],< 200 nM
9,COc1cc(C(=O)NC[C@](O)(c2cc3c(c(-n4ncc5cc(F)ccc54)n2)OC[C@]3(C)C(N)=O)C2CC2)cc2cn(C3CC3)nc12 [Example 821],< 200 nM
10,COc1cc(C(=O)NC[C@@](O)(CC2CC2)c2cc3c(c(-c4cc(Cl)c(F)cc4F)n2)OC[C@]3(C)C(N)=O)cc2cn(C3CC3)nc12 [Example 517],> 200 nM
11,COc1cc(C(=O)NC[C@](O)(c2cc3c(c(-c4ccnc(C)c4Cl)n2)OC[C@]3(C)C(N)=O)C2(F)CC2)cc2cn(C3CC3)nc12 [Example 531],< 200 nM
12,C[C@]1(C(N)=O)COc2c1cc([C@@](O)(CNC(=O)c1cc(OC3CC3)c3ncc(Cl)cc3c1)C1CC1)nc2-c1ccc(F)c(Cl)c1Cl [Example 321],< 200 nM
13,COc1cc(C(=O)NC[C@](O)(c2cc3c(c(-c4ccc(F)c(Cl)c4Cl)n2)OC[C@]3(C)C(N)=O)C2CC2)cc2cn(C(F)F)nc12 [Example 323],< 200 nM
14,COc1cc(C(=O)NC[C@](O)(c2cccc(F)c2)c2cc3c(c(-c4cc(F)cnc4Cl)n2)OC[C@]3(C)C(N)=O)cc2cn(C3(F)CC3)nc12 [Example 404],> 200 nM
15,COc1cc(C(=O)NC[C@](O)(c2cc3c(c(-c4ccnc(C(F)(F)F)c4Cl)n2)OC[C@]3(C)C(N)=O)C2CC2)cc2cn(C(F)F)nc12 [Example 758],< 200 nM
16,C[C@]1(C(N)=O)COc2c1cc([C@@](O)(CNC(=O)c1cc(Cl)c3nn(C(F)F)cc3c1)c1ccccc1)nc2-c1cc(Cl)c(F)cc1F [Example 102],< 200 nM
17,COc1cc(C(=O)NC[C@](O)(c2cc3c(c(-c4ccc(F)c(Cl)c4Cl)n2)OC[C@]3(C)C(N)=O)C2CC2)cc2oc(C3CC3)nc12 [Example 318],< 200 nM
18,COc1cc(C(=O)NC[C@](O)(c2cc3c(c(-c4cc(C(F)(F)F)ncc4F)n2)OC[C@]3(C)C(N)=O)C2CC2)cc2cn(C(F)F)nc12 [Example 352],< 200 nM
19,COc1cc(C(=O)NC[C@](O)(c2cc3c(c(-c4ccnc(C5CC5)c4Cl)n2)OC[C@]3(C)C(N)=O)C2CC2)cc2cn(C3CC3)nc12 [Example 721],< 200 nM
20,CNCC1([C@](O)(CNC(=O)c2cc(OC)c3nn(C4CC4)cc3c2)c2cc3c(c(-c4cc(Cl)c(F)cc4F)n2)OC[C@]3(C)C(N)=O)CC1 [Example 211],> 200 nM

# Test system: HMPV clinical isolate A2 strain TN 94-49
# Test: HMPV antiviral assay, Method 2 (LLC-MK2 cells with CP-100-356, ATP-Lite)
# Assay type: cell-based
# Settings: human metapneumovirus, 168 h; hMPV A2 TN/94-49, LLC-MK2 cells with 4 μM CP-100-356, 7 days, ATP-Lite
# Method in brief: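 EC50 comes from a four-parameter fit of percent cell viability (ATP-Lite, normalized to virus-only and cell-only wells) after 7 days at 37 °C. Infection used HMPV A2 TN 94-49 at MOI 0.16 in LLC-MK2 cells, with 2 μM P-gp inhibitor CP-100-356 and 2 μg/mL TPCK-trypsin final; dose range 200 nM top, 2.5-fold, 10 points, duplicate.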
row,SMILES,EC50
1,COc1cc(C(=O)NC[C@](O)(c2cc3c(c(-n4ccc5c(OC(F)F)cccc54)n2)OC[C@]3(C)C(N)=O)C2CC2)cc2cn(C3CC3)nc12 [Example 864],< 200 nM
2,COc1cc(C(=O)NC[C@](O)(c2cc3c(c(-c4ccnc(C(F)F)c4Cl)n2)OC[C@]3(C)C(N)=O)C2CC2)cc2oc(C3CC3)nc12 [Example 787],< 200 nM
3,COc1nccc(-c2nc([C@@](O)(CNC(=O)c3cc(OC)c4nn(C5(F)CC5)cc4c3)C3CC3)cc3c2OC[C@]3(C)C(N)=O)c1Cl [Example 789],< 200 nM
4,COc1cc(C(=O)NC[C@](O)(c2cc3c(c(-c4ccnc(C(F)(F)F)c4F)n2)OC[C@]3(C)C(N)=O)C2CC2)cc2cn(C3CC3)nc12 [Example 794],< 200 nM
5,COc1cc(C(=O)NC[C@](O)(c2cc3c(c(-n4ncc5cc(F)ccc54)n2)OC[C@]3(C)C(N)=O)C2CC2)cc2cn(C3CC3)nc12 [Example 821],< 200 nM
6,COc1cc(C(=O)NC[C@](O)(c2cc3c(c(-c4ccnc(C(F)(F)F)c4Cl)n2)OC[C@]3(C)C(N)=O)C2CC2)cc2cn(C(F)F)nc12 [Example 758],< 200 nM
7,COc1cc(C(=O)NC[C@](O)(c2cc3c(c(-c4ccnc(C5CC5)c4Cl)n2)OC[C@]3(C)C(N)=O)C2CC2)cc2cn(C3CC3)nc12 [Example 721],< 200 nM

# Same assay, conditions: human metapneumovirus; hMPV A2 TN/94-49, LLC-MK2 cells with CP-100-356, Method 2
row,SMILES,EC50
1,COc1cc(C(=O)NC[C@](O)(c2cc3c(c(-c4csc(Cl)c4)n2)OC[C@]3(C)C(N)=O)C2CC2)cc2cn(C3CC3)nc12 [Example 416],< 200 nM
2,C[C@]1(C(N)=O)COc2c1cc([C@@](O)(CNC(=O)c1cc(OC3CC3)c3ncc(Cl)cc3c1)C1CC1)nc2-c1ccc2c(c1Cl)OC(F)(F)O2 [Example 106],< 200 nM
3,C[C@]1(C(N)=O)COc2c1cc([C@@](O)(CNC(=O)c1cc(OC3CC3)n3nc(C4CC4)cc3c1)C1CC1)nc2-c1ccc(F)c(Cl)c1Cl [Example 325],< 200 nM
4,COc1cc(C(=O)NC[C@](O)(c2cc3c(c(-c4ccnc(F)c4Cl)n2)OC[C@]3(C)C(N)=O)C(F)(F)F)cc2cn(C(F)F)nc12 [Example 380],< 200 nM
5,COc1cc(C(=O)NC[C@@](O)(CC2CC2)c2cc3c(c(-c4cc(Cl)c(F)cc4F)n2)OC[C@]3(C)C(N)=O)cc2cn(C3CC3)nc12 [Example 517],> 200 nM
6,COc1cc(C(=O)NC[C@](O)(c2cc3c(c(-c4ccnc(C)c4Cl)n2)OC[C@]3(C)C(N)=O)C2(F)CC2)cc2cn(C3CC3)nc12 [Example 531],< 200 nM
7,C[C@]1(C(N)=O)COc2c1cc([C@@](O)(CNC(=O)c1cc(OC3CC3)c3ncc(Cl)cc3c1)C1CC1)nc2-c1ccc(F)c(Cl)c1Cl [Example 321],< 200 nM
8,COc1cc(C(=O)NC[C@](O)(c2cc3c(c(-c4ccc(F)c(Cl)c4Cl)n2)OC[C@]3(C)C(N)=O)C2CC2)cc2cn(C(F)F)nc12 [Example 323],< 200 nM
9,COc1cc(C(=O)NC[C@](O)(c2cccc(F)c2)c2cc3c(c(-c4cc(F)cnc4Cl)n2)OC[C@]3(C)C(N)=O)cc2cn(C3(F)CC3)nc12 [Example 404],> 200 nM
10,C[C@]1(C(N)=O)COc2c1cc([C@@](O)(CNC(=O)c1cc(Cl)c3nn(C(F)F)cc3c1)c1ccccc1)nc2-c1cc(Cl)c(F)cc1F [Example 102],> 200 nM
11,COc1cc(C(=O)NC[C@](O)(c2cc3c(c(-c4ccc(F)c(Cl)c4Cl)n2)OC[C@]3(C)C(N)=O)C2CC2)cc2oc(C3CC3)nc12 [Example 318],< 200 nM
12,COc1cc(C(=O)NC[C@](O)(c2cc3c(c(-c4cc(C(F)(F)F)ncc4F)n2)OC[C@]3(C)C(N)=O)C2CC2)cc2cn(C(F)F)nc12 [Example 352],< 200 nM
13,CNCC1([C@](O)(CNC(=O)c2cc(OC)c3nn(C4CC4)cc3c2)c2cc3c(c(-c4cc(Cl)c(F)cc4F)n2)OC[C@]3(C)C(N)=O)CC1 [Example 211],> 200 nM
